Assay results: ChEMBL document CHEMBL5236554 (J Med Chem, 2021)
Calls of active or inactive are those of the source. The calls are words filed in the database; no cut-off is given here. Square brackets hold non-standard residues; d marks the D form. Peptide text beside a SMILES is read from it. * marks the point of attachment. Boc = CC(C)(C)OC(=O)*

Experiments:
[1] = target: Neurolysin, mitochondrial (Rattus norvegicus, UniProt P42676); test: Activation of recombinant rat Neurolysin using QFS as substrate incubated for 10 mins
[2] = Metabolic stability in mouse brain homogenate assessed as half life measured upto 240 mins by LC-MS/MS analysis; format: ADME, tissue-based; details: 4 h
[3] = Metabolic stability in mouse plasma assessed as half life measured upto 240 mins by LC-MS/MS analysis; format: ADME, cell-free
[4] = Permeability coefficient across apical to basolateral side in mouse BEND3 cells co-cultured with mouse primary astrocytes incubated for 120 mins by LC-MS/MS analysis; format: ADME, cell-based; details: bend3, 2 h
[5] = target: Neprilysin (Homo sapiens) (UniProt P08473); test: Inhibition of recombinant human NEP catalytic activity using Mca-Arg-Pro-Pro-Gly-Phe-Ser-Ala-Phe-Lys(Dnp)-OH as substrate
[6] = target: Thimet oligopeptidase (Homo sapiens) (UniProt P52888); test: Inhibition of recombinant human THOP catalytic activity using Mca-Pro-Leu-Gly-Pro-D-Lys(DNP)-OH as substrate
[7] = target: Angiotensin-converting enzyme 2 (Homo sapiens) (UniProt Q9BYF1); test: Inhibition of recombinant human ACE2 catalytic activity at 300 uM using Mca-Ala-Pro-Lys-(Dnp)-OH as substrate
[8] = target: Angiotensin-converting enzyme (Homo sapiens) (UniProt P12821); test: Inhibition of recombinant human ACE catalytic activity measured up to 150 uM
Sequence of Angiotensin-converting enzyme (Homo sapiens) (P12821 whole entry): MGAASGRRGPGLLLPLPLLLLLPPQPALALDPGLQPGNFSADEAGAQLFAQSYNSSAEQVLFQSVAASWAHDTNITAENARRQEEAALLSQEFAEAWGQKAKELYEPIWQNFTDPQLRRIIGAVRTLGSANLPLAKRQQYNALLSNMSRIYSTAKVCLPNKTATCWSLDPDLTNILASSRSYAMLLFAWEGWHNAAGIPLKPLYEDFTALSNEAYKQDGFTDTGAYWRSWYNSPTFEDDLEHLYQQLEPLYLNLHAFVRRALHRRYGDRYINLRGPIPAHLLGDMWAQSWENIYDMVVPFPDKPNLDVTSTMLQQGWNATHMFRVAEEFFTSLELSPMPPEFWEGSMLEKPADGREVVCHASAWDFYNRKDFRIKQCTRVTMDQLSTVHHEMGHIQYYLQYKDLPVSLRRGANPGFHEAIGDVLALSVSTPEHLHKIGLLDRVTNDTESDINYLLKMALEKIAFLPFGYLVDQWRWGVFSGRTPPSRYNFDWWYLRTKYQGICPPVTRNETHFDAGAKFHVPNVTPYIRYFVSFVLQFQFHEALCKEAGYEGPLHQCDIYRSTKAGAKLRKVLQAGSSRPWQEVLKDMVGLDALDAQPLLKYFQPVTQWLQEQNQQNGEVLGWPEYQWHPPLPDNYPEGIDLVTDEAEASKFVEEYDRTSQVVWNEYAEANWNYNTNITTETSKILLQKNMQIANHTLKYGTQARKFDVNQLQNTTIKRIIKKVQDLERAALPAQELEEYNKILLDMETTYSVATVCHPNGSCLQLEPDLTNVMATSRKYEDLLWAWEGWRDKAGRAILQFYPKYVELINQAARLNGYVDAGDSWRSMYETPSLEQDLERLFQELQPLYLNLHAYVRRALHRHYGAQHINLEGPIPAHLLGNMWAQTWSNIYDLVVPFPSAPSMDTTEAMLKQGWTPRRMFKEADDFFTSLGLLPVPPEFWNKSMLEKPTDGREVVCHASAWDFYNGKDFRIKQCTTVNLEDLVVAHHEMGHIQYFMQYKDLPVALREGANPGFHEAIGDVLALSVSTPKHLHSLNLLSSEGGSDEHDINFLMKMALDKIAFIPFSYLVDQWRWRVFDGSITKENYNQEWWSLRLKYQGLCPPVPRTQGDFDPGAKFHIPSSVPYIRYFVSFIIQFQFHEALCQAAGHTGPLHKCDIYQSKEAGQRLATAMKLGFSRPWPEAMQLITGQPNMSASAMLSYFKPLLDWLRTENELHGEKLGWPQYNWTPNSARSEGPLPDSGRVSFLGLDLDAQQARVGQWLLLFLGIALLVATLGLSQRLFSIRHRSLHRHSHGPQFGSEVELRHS

Sequence of Neurolysin, mitochondrial (P42676 whole entry): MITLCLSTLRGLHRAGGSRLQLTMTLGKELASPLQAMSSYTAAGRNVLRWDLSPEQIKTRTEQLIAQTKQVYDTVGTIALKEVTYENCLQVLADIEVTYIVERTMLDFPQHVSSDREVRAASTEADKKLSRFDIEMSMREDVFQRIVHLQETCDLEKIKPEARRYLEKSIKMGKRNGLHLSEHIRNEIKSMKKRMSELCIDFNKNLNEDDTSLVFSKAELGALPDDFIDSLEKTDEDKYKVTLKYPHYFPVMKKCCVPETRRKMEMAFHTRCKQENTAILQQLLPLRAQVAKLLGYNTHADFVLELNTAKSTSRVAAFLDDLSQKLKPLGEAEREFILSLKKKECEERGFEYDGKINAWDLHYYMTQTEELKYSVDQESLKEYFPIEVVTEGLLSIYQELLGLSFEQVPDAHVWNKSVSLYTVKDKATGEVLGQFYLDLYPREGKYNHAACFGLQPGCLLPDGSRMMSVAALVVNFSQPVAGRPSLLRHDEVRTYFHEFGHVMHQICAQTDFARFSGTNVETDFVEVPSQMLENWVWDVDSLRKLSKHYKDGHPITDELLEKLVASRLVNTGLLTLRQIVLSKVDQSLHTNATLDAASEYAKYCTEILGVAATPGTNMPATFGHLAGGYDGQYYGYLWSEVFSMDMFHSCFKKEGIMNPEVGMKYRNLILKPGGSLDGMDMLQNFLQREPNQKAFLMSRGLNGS
Sequence of Neprilysin (Homo sapiens) (P08473 whole entry): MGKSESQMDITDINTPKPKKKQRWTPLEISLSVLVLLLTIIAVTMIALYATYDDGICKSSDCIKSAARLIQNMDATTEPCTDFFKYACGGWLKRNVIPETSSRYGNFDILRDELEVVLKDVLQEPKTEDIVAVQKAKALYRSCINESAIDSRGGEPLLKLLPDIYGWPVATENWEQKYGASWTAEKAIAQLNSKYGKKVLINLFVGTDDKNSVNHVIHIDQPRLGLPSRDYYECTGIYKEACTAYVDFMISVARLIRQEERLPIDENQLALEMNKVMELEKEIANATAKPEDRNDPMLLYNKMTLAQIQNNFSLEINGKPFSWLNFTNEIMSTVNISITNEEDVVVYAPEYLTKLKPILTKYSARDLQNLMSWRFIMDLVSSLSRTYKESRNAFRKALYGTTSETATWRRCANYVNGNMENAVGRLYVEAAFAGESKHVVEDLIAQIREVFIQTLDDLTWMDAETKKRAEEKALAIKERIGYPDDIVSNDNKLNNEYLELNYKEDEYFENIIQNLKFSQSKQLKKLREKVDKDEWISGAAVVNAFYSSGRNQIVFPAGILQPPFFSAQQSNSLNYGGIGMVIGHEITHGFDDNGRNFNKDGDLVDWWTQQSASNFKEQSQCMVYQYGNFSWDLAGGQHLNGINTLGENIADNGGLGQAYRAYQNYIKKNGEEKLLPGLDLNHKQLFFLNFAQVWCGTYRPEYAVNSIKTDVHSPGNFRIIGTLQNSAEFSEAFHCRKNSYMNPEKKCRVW
Sequence of Thimet oligopeptidase (Homo sapiens) (P52888 whole entry): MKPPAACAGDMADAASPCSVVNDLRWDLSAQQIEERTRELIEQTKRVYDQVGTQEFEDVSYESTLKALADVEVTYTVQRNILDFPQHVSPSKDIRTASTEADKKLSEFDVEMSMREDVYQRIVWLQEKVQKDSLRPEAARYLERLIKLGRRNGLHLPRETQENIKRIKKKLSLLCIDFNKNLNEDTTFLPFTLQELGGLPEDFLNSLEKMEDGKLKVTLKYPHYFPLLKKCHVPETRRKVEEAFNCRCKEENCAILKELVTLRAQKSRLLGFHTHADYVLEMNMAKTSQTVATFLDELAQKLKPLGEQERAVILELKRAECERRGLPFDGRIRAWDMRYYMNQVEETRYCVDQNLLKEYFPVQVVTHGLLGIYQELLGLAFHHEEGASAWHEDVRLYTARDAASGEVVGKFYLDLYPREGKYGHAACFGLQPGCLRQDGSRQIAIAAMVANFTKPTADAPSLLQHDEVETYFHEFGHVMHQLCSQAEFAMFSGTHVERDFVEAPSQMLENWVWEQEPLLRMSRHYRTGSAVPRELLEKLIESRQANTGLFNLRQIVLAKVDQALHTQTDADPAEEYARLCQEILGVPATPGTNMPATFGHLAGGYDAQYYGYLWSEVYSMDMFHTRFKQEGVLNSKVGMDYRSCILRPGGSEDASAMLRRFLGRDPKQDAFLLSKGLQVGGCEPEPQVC
Sequence of Angiotensin-converting enzyme 2 (Homo sapiens) (Q9BYF1 18-805 limits assumed): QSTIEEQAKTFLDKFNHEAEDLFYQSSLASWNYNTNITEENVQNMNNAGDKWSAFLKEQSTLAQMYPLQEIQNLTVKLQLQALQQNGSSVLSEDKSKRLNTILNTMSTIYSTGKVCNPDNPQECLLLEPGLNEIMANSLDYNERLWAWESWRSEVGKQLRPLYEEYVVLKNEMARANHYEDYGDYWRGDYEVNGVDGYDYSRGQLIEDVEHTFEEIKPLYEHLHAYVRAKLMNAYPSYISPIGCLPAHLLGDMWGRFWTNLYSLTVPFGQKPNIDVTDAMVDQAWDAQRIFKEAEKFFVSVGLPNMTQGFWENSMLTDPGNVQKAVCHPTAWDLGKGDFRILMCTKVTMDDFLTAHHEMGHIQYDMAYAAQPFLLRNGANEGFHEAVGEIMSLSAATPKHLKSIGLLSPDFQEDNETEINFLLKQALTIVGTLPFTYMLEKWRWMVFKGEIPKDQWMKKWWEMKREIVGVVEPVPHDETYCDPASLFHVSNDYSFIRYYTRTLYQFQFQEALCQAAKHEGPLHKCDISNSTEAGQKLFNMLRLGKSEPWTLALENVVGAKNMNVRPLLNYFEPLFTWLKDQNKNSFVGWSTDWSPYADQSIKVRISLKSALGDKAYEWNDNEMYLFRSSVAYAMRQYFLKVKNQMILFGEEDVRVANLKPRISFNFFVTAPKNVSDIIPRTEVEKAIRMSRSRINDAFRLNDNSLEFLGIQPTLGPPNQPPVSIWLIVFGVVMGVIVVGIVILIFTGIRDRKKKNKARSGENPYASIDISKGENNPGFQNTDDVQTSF

With O=C(CCc1c[nH]cn1)NCCc1cc2ccccc2[nH]1 the EC50 [1] was “Not Active”.

With CC(C)(C)OC(=O)N[C@@H](Cc1ccc(O)cc1)C(=O)N[C@H](Cc1ccccc1)C(=O)O (Boc-Tyr-[dF]-OH) the EC50 [1] was “Not Active”.

For CC(C)(C)OC(=O)N[C@@H](Cc1c[nH]cn1)C(=O)NCCc1c[nH]c2ccccc12, the EC50 [1] was “Not Active”.

In the case of N[C@@H](Cc1c[nH]cn1)C(=O)N[C@@H](Cc1ccccc1)C(=O)O (H-His-Phe-OH), the EC50 ([1]; read-out: EC50) is reported as 74.5 µM.

Compound NC(Cc1c[nH]cn1)C(=O)NCc1cccc2cccnc12 (racemic) has an EC50 ([1]; read-out: EC50) of 5.8 µM.

For N[C@@H](Cc1c[nH]cn1)C(=O)N[C@@H](Cc1ccc(O)cc1)C(=O)O (H-His-Tyr-OH), the t1/2 [2] was 1.03 min, the t1/2 ([3]; 4 h) was 34.19 min and the Kp [4] was 0.21 10^-3cm/min.

With N[C@@H](Cc1c[nH]cn1)C(=O)NCc1cccc2ccccc12 the t1/2 [2] was 80.3 min, the half-life [3] was greater than 1000 min and the inhibition [5] was “inactive”. The inhibition [6] was “inactive”, the inhibition [7] was “inactive” and the Kp [4] was 1.09 10^-3cm/min. For the same compound, the inhibition [8] was “inactive”.

With N[C@@H](Cc1ccc(O)cc1)C(=O)N[C@H](Cc1c[nH]cn1)C(=O)O the EC50 [1] was “Not Active”.

N[C@@H](Cc1c[nH]cn1)C(=O)NCCc1ccc(F)cc1 gave an EC50 ([1]; read-out: EC50) of 11.6 µM.
